In this experiment the target is T1, rat B1R (bradykinin receptor 1) (Rattus norvegicus, UniProt P97583).
T1 construct: expressed in transfected cells; host or cells: CHO K1 cells
T1 sequence (P97583 1-337): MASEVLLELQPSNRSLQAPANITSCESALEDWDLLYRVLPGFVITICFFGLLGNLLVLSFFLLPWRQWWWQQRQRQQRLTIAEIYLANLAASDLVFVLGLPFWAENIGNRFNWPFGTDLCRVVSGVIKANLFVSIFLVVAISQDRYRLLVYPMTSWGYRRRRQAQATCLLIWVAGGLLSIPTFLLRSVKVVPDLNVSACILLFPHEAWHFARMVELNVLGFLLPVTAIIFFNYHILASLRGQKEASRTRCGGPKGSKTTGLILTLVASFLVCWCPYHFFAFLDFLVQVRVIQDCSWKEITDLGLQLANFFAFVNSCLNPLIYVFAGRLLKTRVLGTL
Description: FLIPR Ca2+ assay (Fluo-4) on CHO K1 cells stably transfected with the B1R gene of the rat (rB1R cells): % inhibition at 10 μM / IC50, agonist Des-Arg9-bradykinin. Format: cell-based. To be noted: CHO-K1, rat B1R. The gist of the method: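 Using a two-addition FLIPR protocol, compound (10 μM for % values; concentration series for IC50) was preincubated 10–20 min with Fluo-4-loaded B1R-expressing CHO K1 cells before EC80 agonist challenge. Suppression of Ca2+ inflow, read as peak fluorescence, is expressed relative to maximum achievable inhibition; duplicate/triplicate, ≥2 independent experiments.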

Each structure is given as a SMILES string.

The record followed here is patent US8455475B2 (Gruenenthal GmbH, priority 2009, dated 2013).

Consider `O=C(NC1CCc2ccc(C(=O)N3CCC4(CCN(Cc5c(F)cccc5Cl)CC4)CC3)cc21)c1c(F)cccc1Cl` (stereo not shown) [IND_CC-803, 2-Chloro-N-[6-[9-[(2-chloro-6-fluoro-phenyl)-methyl]-3,9-diazaspiro-[5.5]undecane-3-carbonyl]-2,3-dihydro-1H-inden-1-yl]-6-fluoro-benzamide], for which the inhibition at 10 µM is 76%. With `COc1ccc(CN2CCC3(CC2)CCN(C(=O)c2ccc4c(c2)C(NC(=O)c2sccc2Cl)CC4)C3)cc1F` (stereo not shown) [IND_CC-548, 3-Chloro-N-[6-[8-[(3-fluoro-4-methoxy-phenyl)-methyl]-2,8-diazaspiro[4.5]decane-2-carbonyl]-2,3-dihydro-1H-inden-1-yl]-thiophene-2-carboxylic acid amide], the inhibition at 10 µM came out at 66%. For `O=C(NC1CCc2ccc(C(=O)N3CCC4(CCN(C(=O)Cc5ccc(Cl)cc5)CC4)C3)cc21)c1sccc1Cl` (stereo not shown) [IND_CC-586, 3-Chloro-N-[6-[8-[2-(4-chlorophenyl)-acetyl]-2,8-diazaspiro[4.5]decane-2-carbonyl]-2,3-dihydro-1H-inden-1-yl]-thiophene-2-carboxylic acid amide] the value was 76%.

As to `O=C(NC1CCc2ccc(C(=O)N3CCC4(CC3)CCN(c3ccncc3)C4)cc21)C1CCCC1` (stereo not shown) [IND_CC-393, N-[6-(2-Pyridin-4-yl-2,8-diazaspiro[4.5]decane-8-carbonyl)-2,3-dihydro-1H-inden-1-yl]-cyclopentanecarboxylic acid amide], the inhibition at 10 µM came out at 103%. Turning to `Cc1nc[nH]c1CN1CCC2(CC1)CCN(C(=O)c1ccc3c(c1)C(NC(=O)c1cc(C(F)(F)F)ccc1Cl)CC3)C2` (stereo not shown) [IND_CC-655, 2-Chloro-N-[6-[8-[(5-methyl-3H-imidazol-4-yl)-methyl]-2,8-diazaspiro[4.5]-decane-2-carbonyl]-2,3-dihydro-1H-inden-1-yl]-5-(trifluoromethyl)-benzamide], the inhibition at 10 µM was 59%. The result for `Cc1cc(C(=O)N2CCC3(CCN(C(=O)c4ccc5c(c4)C(NC(=O)c4sccc4Cl)CC5)C3)CC2)n(C(C)(C)C)n1` (stereo not shown) [IND_CC-588, N-[6-[8-(2-tert-Butyl-5-methyl-2H-pyrazole-3-carbonyl)-2,8-diazaspiro[4.5]-decane-2-carbonyl]-2,3-dihydro-1H-inden-1-yl]-3-chloro-thiophene-2-carboxylic acid amide] reads 61%; that for `N#Cc1ccc(C(=O)N2CCC3(CC2)CCN(C(=O)c2ccc4c(c2)C(NC(=O)c2ccccc2Cl)CC4)CC3)cc1` (stereo not shown) [IND_CC-596, 2-Chloro-N-[6-[9-(4-cyano-benzoyl)-3,9-diazaspiro[5.5]undecane-3-carbonyl]-2,3-dihydro-1H-inden-1-yl]-benzamide], 94%; that for `COc1cccc(F)c1CN1CCC2(CC1)CCN(C(=O)c1ccc3c(c1)C(NC(=O)c1c(F)cccc1Cl)CC3)CC2` (stereo not shown) [IND_CC-793, 2-Chloro-6-fluoro-N-[6-[9-[(2-fluoro-6-methoxy-phenyl)-methyl]-3,9-diazaspiro[5.5]undecane-3-carbonyl]-2,3-dihydro-1H-inden-1-yl]-benzamide], 79%.

Consider `O=C(NC1CCc2ccc(C(=O)N3CCC4(CCN(Cc5cc(F)ccc5F)CC4)CC3)cc21)c1cc(C(F)(F)F)ccc1Cl` (stereo not shown) [IND_CC-646, 2-Chloro-N-[6-[9-[(2,5-difluoro-phenyl)-methyl]-3,9-diazaspiro[5.5]undecane-3-carbonyl]-2,3-dihydro-1H-inden-1-yl]-5-(trifluoromethyl)-benzamide], for which the inhibition at 10 µM was 66%. For `Cc1nn(C)c(C)c1CN1CCC2(CC1)CCN(C(=O)c1ccc3c(c1)C(NC(=O)c1ccccc1Cl)CC3)C2` (stereo not shown) [IND_CC-564, 2-Chloro-N-[6-[8-[(1,3,5-trimethyl-1H-pyrazol-4-yl)-methyl]-2,8-diazaspiro[4.5]decane-2-carbonyl]-2,3-dihydro-1H-inden-1-yl]-benzamide] the value was 81%; for `N#Cc1cccc(CN2CCC3(CC2)CCN(C(=O)c2ccc4c(c2)C(NC(=O)c2ccccc2Cl)CC4)CC3)c1` (stereo not shown) [IND_CC-534, 2-Chloro-N-[6-[9-[(3-cyano-phenyl)-methyl]-3,9-diazaspiro[5.5]undecane-3-carbonyl]-2,3-dihydro-1H-inden-1-yl]-benzamide], 102%.

Consider `Cc1cccc(Cl)c1S(=O)(=O)N(C)C1CCc2ccc(C(=O)N3CCC4(CC3)CCN(c3ccncc3)CC4)cc21` (stereo not shown) [IND_CC-227, 2-Chloro-N,6-dimethyl-N-[6-(9-pyridin-4-yl-3,9-diazaspiro[5.5]undecane-3-carbonyl)-2,3-dihydro-1H-inden-1-yl]-benzenesulfonic acid amide], for which the inhibition at 10 µM came out at 97%. Consider `COc1ccc(CN2CCC3(CC2)CCN(C(=O)c2ccc4c(c2)C(N(C)C(=O)c2ccccc2Cl)CC4)C3)cc1F` (stereo not shown) [IND_CC-552, 2-Chloro-N-[6-[8-[(3-fluoro-4-methoxy-phenyl)-methyl]-2,8-diazaspiro[4.5]-decane-2-carbonyl]-2,3-dihydro-1H-inden-1-yl]-N-methyl-benzamide], for which the inhibition at 10 µM was determined as 68%. `CCC(C)C(=O)N(C)C1CCc2ccc(C(=O)N3CCC4(CC3)CCN(c3ccncc3)CC4)cc21` (stereo not shown) [IND_CC-416, N,2-Dimethyl-N-[6-(9-pyridin-4-yl-3,9-diazaspiro[5.5]undecane-3-carbonyl)-2,3-dihydro-1H-inden-1-yl]-butyramide]: the inhibition at 10 µM came to 101%. The result for `Cn1ccc2c(S(=O)(=O)N3CCC4(CCN(C(=O)c5ccc6c(c5)C(NC(=O)c5ccccc5Cl)CC6)CC4)CC3)cccc21` (stereo not shown) [IND_CC-612, 2-Chloro-N-[6-[9-[(1-methyl-1H-indol-4-yl)sulfonyl]-3,9-diazaspiro[5.5]undecane-3-carbonyl]-2,3-dihydro-1H-inden-1-yl]-benzamide] reads 65%; that for `O=C(NC1CCc2ccc(C(=O)N3CCC4(CC3)CCN(C(=O)C3CC3)CC4)cc21)c1ccccc1Cl` (stereo not shown) [IND_CC-597, 2-Chloro-N-[6-[9-(cyclopropanecarbonyl)-3,9-diazaspiro[5.5]undecane-3-carbonyl]-2,3-dihydro-1H-inden-1-yl]-benzamide], 101%. For `Cn1nnc2cc(CN3CCC4(CC3)CCN(C(=O)c3ccc5c(c3)C(NC(=O)c3c(F)cccc3Cl)CC5)C4)ccc21` (stereo not shown) [IND_CC-776, 2-Chloro-6-fluoro-N-[6-[8-[(1-methyl-1H-benzotriazol-5-yl)-methyl]-2,8-diazaspiro[4.5]decane-2-carbonyl]-2,3-dihydro-1H-inden-1-yl]-benzamide] the value was 99%; for `Cc1nc(CN2CCC3(CC2)CCN(C(=O)c2ccc4c(c2)C(NC(=O)c2cc(C(F)(F)F)ccc2Cl)CC4)CC3)c[nH]1` (stereo not shown) [IND_CC-662, 2-Chloro-N-[6-[9-[(2-methyl-1H-imidazol-4-yl)-methyl]-3,9-diazaspiro[5.5]-undecane-3-carbonyl]-2,3-dihydro-1H-inden-1-yl]-5-(trifluoromethyl)benzamide], 76%. For `COc1ccc(CN2CCC3(CC2)CCN(C(=O)c2ccc4c(c2)C(N(C(=O)c2ccccc2Cl)C2CC2)CC4)C3)cc1F` (stereo not shown) [IND_CC-524, 2-Chloro-N-cyclopropyl-N-[6-[8-[(3-fluoro-4-methoxy-phenyl)-methyl]-2,8-diazaspiro[4.5]decane-2-carbonyl]-2,3-dihydro-1H-inden-1-yl]-benzamide] the value was 62%.
